From patent EP2363475A1, “SCREENING METHOD, COMPOSITION CONTAINING SUBSTANCE SELECTED BY THE SCREENING METHOD, AND BINDING SUBSTANCE” (Redox Bioscience Inc., priority 2008, dated 2010)

Target: T1, bond between rTRX and rMIF (Homo sapiens, UniProt P10599)
T1 construct: His tag; made in house; host or cells: Escherichia coli
T1 sequence (P10599 1-105): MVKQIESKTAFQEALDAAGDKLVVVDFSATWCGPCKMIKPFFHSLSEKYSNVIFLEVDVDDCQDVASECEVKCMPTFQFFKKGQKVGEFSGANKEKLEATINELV
Assay: Screening by molecular interaction analysis (Biacore, SPR) for test substances that strengthen the bond between TRX and MIF
Assay type: binding
Conditions: test substance 500 µM mixed with rTRX 5 µM (Prostaglandin 12 also at 5 µM); FIGS. 7 to 11
Method: For several test substances, it was confirmed with a molecular interaction analysis whether they strengthened the bond between TRX and MIF or not.
rTRX; (same as the rTRX of Example 5) rMIF; (same as the rMIF of Example 5) BIAcore2000; (CM5 sensor chip)
N-acetylglucosamine Nitrosoglutathione Prostaglandin 12
rMIF was immobilized in a CM5 sensor chip as a ligand. The ligand was adjusted to have the rMIF concentration of less or equal to 200 nM by using running buffer, 10 mM HEPES (pH7.4), 150 mM NaCl, 3 mM EDTA and 0.005% Tween 20.
Then, N-acetylglucosamine, Nitrosoglutathione and Prostaglandin 12 were mixed with rTRX, respectively, to form three types of analytes.
In each analyte, the concentration of rTRX was 5 µM and the concentration of the test substance was 500 µM. For Prostaglandin 12, the analyte having its concentration of 5 µM was also analyzed.

## Prostaglandin 12
  effect on the bond between rTRX and rMIF: remarkably strengthen the bond between rTRX and rMIF
